Source: patent US20240174622A1, “COMPOUND AND RADIOACTIVE LABELING COMPOUND” (NIHON MEDI-PHYSICS CO., LTD., priority 2021, published 2024)

What was measured:
[1] = biological target: human serum albumin (HSA) (Homo sapiens, UniProt P02768); assay: Evaluation of binding to albumin (HSA solution, PBS control)
Experimental: Thereafter, the reaction liquids were added to a spin column (Sephadex G-100; manufactured by Cytiva), and centrifuged at 1500×g at 4° C. for 2 minutes. After separation, the radioactivity for each of the column and the eluate was measured with a gamma counter.
(§1) When a compound to be evaluated binds to albumin to form a composite, the compound passes through the column because of the increased molecular size.
As in Examples described above, PBS and human albumin were used to evaluate binding to albumin.
(§2) Thereafter, the reaction liquid was added to a spin column (Sephadex G-50; manufactured by Cytiva), and centrifuged at 1500×g at 4° C. for 2 minutes. After separation, the radioactivity of the column and the eluate was measured with a gamma counter.

[2] = test system: plasma albumin (human plasma); assay: Evaluation of binding to albumin (human plasma); conditions: for radioactivity in the eluate (in words): left to stand in human plasma
Experimental: A PBS solution (37 kBq, 50 μL) of [^111In]In-PSMA-DA1 or [^111In]In-PSMA-DB was added to 200 μL of PBS, mouse plasma, human plasma, or a human serum albumin (HSA) solution (45 mg/mL) in PBS, respectively, and the mixtures were allowed to stand at 37° C. for 10 minutes. Thereafter, the reaction liquids were added to a spin column ([…]; manufactured by Cytiva), and centrifuged at 1500×g at 4° C. for 2 minutes. After separation, the radioactivity for each of the column and the eluate was measured with a gamma counter.
as §1
As in Example 1-1 described above, PBS, mouse plasma, human plasma, and human albumin were used to evaluate binding to albumin. Evaluation was carried out by the same experimental procedure and statistical method as in Example 1-1, except that a PBS solution (37 kBq, 50 μL) of [^111In]In-PtDA was used.
as §2

[3] = test system: LNCaP cells (PSMA-positive, human prostate cancer); assay: Binding assay using cultured cells (LNCaP); type: cell-based; conditions: for binding to LNCaP cells on adding an excess amount of the PSMA inhibitor (2-PMPA): 2-PMPA final concentration 100 μM
Experimental: LNCaP cells (PSMA-positive, human prostate cancer) and PC-3 cells (PSMA-negative, human prostate cancer) were used. These cells were purchased from American Type Culture Collection and DS Biomedical, respectively. Each of the cells were cultured in RPMI 1640, which is manufactured by NACALAI TESQUE, INC. and contains antibiotics (penicillin and streptomycin) and 10% inactivated fetal bovine serum, at 37° C. under 5% CO2.
The LNCaP cells and PC-3 cells were each seeded on a 12 well plate at 4.0×10^5 cells/well, and left standing at 37° C. under 5% CO2 for 48 hours.
The culture medium was removed, and an assay medium (0.5% FBS-containing RPMI 1640 medium) solution (1 mL) containing [^111In]In-PSMA-DA1 or [^111In]In-PSMA-DB (37 kBq) was added. Thereafter, the plate was allowed to stand at 37° C. under 5% CO2 for 1 hour.
(§3) In the inhibition assays, after removing the culture medium, an assay medium (1 mL) solution containing: [^111In]In-PSMA-DA1 or [^111In]In-PSMA-DB (37 kBq); and 2-(phosphonomethyl) pentanedioic acid (2-PMPA) (PSMA inhibitor; final concentration: 100 μM) was added. Thereafter, the plate was allowed to stand at 37° C. under 5% CO2 for 1 hour.
After removing the assay medium, each well was washed with an assay medium (1 mL) containing neither the radiolabeled compound nor 2-PMPA, and the cells were lysed with 1 N aqueous sodium hydroxide solution (200 μL×2).
The radioactivity for each of the assay medium and the cell lysate was measured with a gamma counter. Separately, the total protein concentration in the cell lysate was calculated using BCA Protein Assay Kit, which is manufactured by Thermo Fisher Scientific K.K. The value (% ID/mg protein) obtained by dividing the percentage (% ID) of the sample's radioactivity amount to the added radioactivity amount by the total protein amount was calculated for each sample.
In the same manner as in Example 1-1 described above, LNCaP cells and PC-3 cells were cultured and cell-binding assay were performed. Evaluation was carried out by the same experimental procedure and statistical method as in Example 1-1, except that 0.5% FBS-containing RPMI 1640 medium (1 mL) containing [^111In]In-PtDA (37 kBq) was used.
LNCaP cells and PC-3 cells cultured in the same method as in Example 1-1 were each seeded on a 12 well plate at 4.0×10^5 cells/well, and left standing at 37° C. under 5% CO2 for 48 hours. The culture medium was removed, and an assay medium (0.5% FBS-containing RPMI 1640 medium) solution (1 mL) containing the radiolabeled compound (37 kBq each) in Examples 3-1 to 3-3 or Comparative Examples 2-1 to 2-2 was added. Thereafter, the plate was allowed to stand at 37° C. under 5% CO2 for 1 hour.
as §3, with “experiments,” for “assays,”, “mL)” for “mL) solution”, “the radiolabeled compound described above;” for “[^111In]In-PSMA-DA1 or [^111In]In-PSMA-DB (37 kBq);”
After removing the assay medium, each well was washed with assay medium (1 mL), and the cells were lysed with 1 N aqueous sodium hydroxide solution (200 μL×2).
Radioactivity of each of the cell lysates was measured with a gamma counter. Separately, the total protein concentration in the cell lysate was calculated using BCA Protein Assay Kit, which is manufactured by Thermo Fisher Scientific K.K. The value (% ID/mg protein) obtained by dividing the percentage (% ID) of the sample's radioactivity amount to the added radioactivity amount by the total protein amount was calculated for each sample.
LNCaP cells and PC-3 cells cultured in the same method as in Example 1-1 were each seeded on a 12 well plate at 4.0×10^5 cells/well, and left standing at 37° C. under 5% CO2 for 48 hours.
Thereafter, the plate was allowed to stand at 37° C. under 5% CO2 for 1 hour. […]

[4] = left to stand in HSA solution (45 mg/mL)

Sequence of human serum albumin (HSA) (P02768 25-609): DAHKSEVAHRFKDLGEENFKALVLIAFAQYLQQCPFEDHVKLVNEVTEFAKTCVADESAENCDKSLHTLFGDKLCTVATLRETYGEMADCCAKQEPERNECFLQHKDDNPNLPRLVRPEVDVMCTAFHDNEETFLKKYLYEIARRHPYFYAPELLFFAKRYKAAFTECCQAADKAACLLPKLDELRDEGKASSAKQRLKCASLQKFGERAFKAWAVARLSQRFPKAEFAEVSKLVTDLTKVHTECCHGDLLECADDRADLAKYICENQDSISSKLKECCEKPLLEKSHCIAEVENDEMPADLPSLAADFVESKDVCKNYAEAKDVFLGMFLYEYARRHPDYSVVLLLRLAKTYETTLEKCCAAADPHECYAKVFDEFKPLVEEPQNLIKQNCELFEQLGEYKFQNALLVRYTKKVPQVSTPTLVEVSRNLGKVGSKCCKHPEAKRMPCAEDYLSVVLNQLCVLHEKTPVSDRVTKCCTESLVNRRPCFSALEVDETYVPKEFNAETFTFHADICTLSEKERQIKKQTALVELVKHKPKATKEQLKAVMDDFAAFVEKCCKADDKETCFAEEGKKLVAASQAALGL

| SMILES | radioactivity in the eluate (in words) [1, 4] | radioactivity in the eluate (in words) [2] | binding to LNCaP cells on adding an excess amount of the PSMA inhibitor (2-PMPA) [3] | binding ability to LNCaP cells compared to PC-3 cells ([3]; 37° C., 1 hour) | radioactivity in the eluate (in words) ([1]; left to stand in PBS) | further results |
| --- | --- | --- | --- | --- | --- | --- |
| O=C([O-])CN(Cc1cccc(C(=O)[O-])n1)C[C@H](Cc1ccc(NC(=O)[C@H](CCCCNC(=O)CCC(=O)NCCCC[C@H](NC(=O)N[C@@H](CCC(=O)O)C(=O)O)C(=O)O)NC(=O)CCCc2ccc(I)cc2)cc1)N(CC(=O)[O-])Cc1cccc(C(=O)[O-])n1.[111In+3] [[^111In]In-Octapa-2] | significantly higher |  |  |  |  |  |
| O=C(O)CC[C@H](NC(=O)N[C@@H](CCCCNC(=O)[C@H](Cc1ccc2ccccc2c1)NC(=O)[C@H]1CC[C@H](CNC(=O)CCC(C(=O)O)N2CCN(CC(=O)O)CCN(C(CCC(=O)N[C@@H](CCCCNC(=O)CCCc3ccc(I)cc3)C(=O)O)C(=O)O)CCN(CC(=O)O)CC2)CC1)C(=O)O)C(=O)O (some centres unmarked) [[^111In]In-PSMA-NAT-DA1, metal not drawn] |  | significantly high | significantly reduced | high binding ability |  |  |
| O=C([O-])CN1CCN(C(CCC(=O)NCCCC[C@H](NC(=O)N[C@@H](CCC(=O)O)C(=O)O)C(=O)O)C(=O)[O-])CCN(CC(=O)[O-])CCN(C(CCC(=O)Nc2ccccc2)C(=O)[O-])CC1.[111In+3] (some centres unmarked) [[^111In]In-PSMA-DB, reference compound] |  |  | significantly reduced | high binding ability | no significant radioactivity |  |
| O=C([O-])CN1CCN(C(CCC(=O)NCCCC[C@H](NC(=O)N[C@@H](CCC(=O)O)C(=O)O)C(=O)O)C(=O)[O-])CCN(CC(=O)[O-])CCN(C(CCC(=O)N[C@@H](CCCCNC(=O)CCCc2ccc(I)cc2)C(=O)O)C(=O)[O-])CC1.[111In+3] (some centres unmarked) [[^111In]In-PSMA-DA1] | significantly higher | significantly higher | significantly reduced | high binding ability | no significant radioactivity |  |
| O=C([O-])CN1CCN(C(CCC(=O)NCCC(=O)N2Cc3ccccc3-c3c(nnn3CCOCCOCCOCCOCCC(=O)NCCCC[C@H](NC(=O)N[C@@H](CCC(=O)O)C(=O)O)C(=O)O)-c3ccccc32)C(=O)[O-])CCN(CC(=O)[O-])CCN(C(CCC(=O)N[C@@H](CCCCNC(=O)CCCc2ccc(I)cc2)C(=O)O)C(=O)[O-])CC1.[111In+3] (some centres unmarked) [[^111In]In-PtDA] |  |  |  |  |  | radioactivity in the eluate ([2]; human plasma): 79.0%; binding to LNCaP cells with excess PSMA inhibitor (2-PMPA) ([3]; 2-PMPA 100 μM): 0.36 % ID/mg protein; binding to LNCaP cells ([3]; 37° C., 1 hour): 15 % ID/mg protein; radioactivity in the eluate ([1]; PBS): 6.9%; radioactivity in the eluate ([1]; human albumin solution): 92.4% |
